Measured values from PubChem BioAssay AID2060330 (Molecular Pharmacology Branch, DTP, NCI, 2025).
Where “and” joins values, the source holds several entries; their conditions need not be identical. Equal entries are not always repeated.

System: LG0703-F948-PDC spheroids with HUVEC/MSC, viability
Experiment: Anticancer human tumor LG0703-F948-PDC patient-derived lung adenocarcinoma cell line growth inhibition [IpAb]
Settings: for viability, T/C: stronger effect = lower value
From the text: Combinatorial screen of targeted agents with ipatasertib and abemaciclib in multi-cell type tumor spheroids
A high-throughput screen of multi-cell type tumor spheroids was designed to identify active combinations of targeted small molecules and ipatasertib or abemaciclib. Complex spheroids include a stromal component modeled by human endothelial cells (HUVEC) and fibroblasts modeled by human mesenchymal stem cells (MSCs). The concentration ranges selected for each drug and investigational agent were based upon clinically achievable concentrations if the clinical Cmax of the agent was known.
Compounds. The drugs and investigational agents: ipatasertib (NSC767898), abemaciclib(NSC768073), selumetinib (NSC741078), trametinib (758246), adavosertib (NSC754352), everolimus (NSC733504), sapanisertib (NSC764658), vemurafenib (NSC761431), venetoclax (NSC766270), copanlisib (NSC809693), apelisib (NSC765974), palbociblib (NSC758247), vemurafenib (NSC761431), dabrafenib (NSC764134), ravoxertinib (NSC781343), BMS-387032 (NSC767048), sotorasib (NSC818433), talazoparib (NSC767125) and afursertib (NSC778305), were obtained from the National Cancer Institute (NCI) Developmental Therapeutics Program Chemical Repository. The FDA-approved anticancer drug set is available from the NCI Developmental Therapeutics Program. […] The stock solutions were prepared in dimethyl sulfoxide (DMSO, Sigma-Aldrich, St. Louis, MO, cat. D2650) at 800-fold the tested concentration and stored at -70 degrees C prior to their use. All drugs and investigational agents were tested over a range starting from a high concentration at or near the clinical Cmax and decreasing in half-log increments. If the clinical Cmax for an agent had not been determined, the highest concentration tested was 10 microM.
NCI60 Cell Culture. NCI60 cell lines were obtained from the NCI Developmental Therapeutics Program Tumor Repository. For each lot of cells, the Repository performed Applied Biosystems AmpFLSTR Identifiler testing with PCR amplification to confirm consistency with the published Identifier STR profile for each cell line. Cells were kept in continuous culture for no more than 20 passages. The optimal seeding densities for each of the cell lines at each time point assessed were determined prior to performing the concentration response studies. Briefly, the NCI60 human tumor lines were grown as monolayers in RPMI 1640 medium supplemented with 10% FBS and 2 mmol/L L-glutamine.
An additional 9 lines were from the NCI60 cell line panel including MDA-MB-231 breast carcinoma, MDA-MB-468 breast carcinoma, MCF7 breast carcinoma, Hs578T breast carcinoma, MALME-3M melanoma, SK-MEL-2 melanoma, SK-OV-3 ovarian carcinoma, DU-145 prostate carcinoma, PC-3 prostate carcinoma, all cell lines along with major genetic alterations are listed on Table 2. Pooled donor human umbilical vein endothelial cells (HUVEC, Lonza, cat. CC-2519) and human mesenchymal stem cells (hMSC, Lonza, cat. PT-2501) were purchased from Lonza (Walkersville, MD).
PDMR cell lines were grown in complete medium (DC medium): Dulbecco's modified Eagle's medium (DMEM)/F12 supplemented with 5% fetal bovine serum (FBS), 2 mM L-glutamine, 100 U/mL penicillin and 100 µg/ml streptomycin, 0.4 µg/ml hydrocortisone, 10 ng/ml epidermal growth factor (EGF) recombinant human protein, 24 µg/mL adenine, and 0.1 mg/mL primocin. During culture from frozen stock vials, PDMR cells were cultured in the same medium containing 10 µM Y-27632 (see Table 3). The PDCs were cultured in complete DMEM/F12 media without 10 microM Y-27632 dihydrochloride for at least two passages prior to the screen. The pooled donor HUVEC and hMSC were cultured in endothelial cell growth medium 2 (PromoCell, Heidelberg, Germany, cat. C-22011) and mesenchymal stem cell growth medium 2 (PromoCell, cat. C-28009), respectively. For all experiments, HUVEC and hMSC were used at passages </=5.
[…]
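Further: spheroids exposed to compounds for seven days before readout.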
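Wherever viability, T/C is given: T/C percent relative to DMSO vehicle wells set as 100% viability.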

Structure (SMILES)	viability, T/C (compound 0.0316 µM)	viability, T/C (compound 0.1 µM)	viability, T/C (compound 0.316 µM)	viability, T/C (compound 1 µM)	viability, T/C (compound 3.16 µM)	viability, T/C (compound 10 µM)	IC50 (curve of compound)	other results
C=CC(=O)N1CCN(c2nc(=O)n(-c3c(C)ccnc3C(C)C)c3nc(-c4c(O)cccc4F)c(F)cc23)C(C)C1 (centres undefined)	110% and 106%	108% and 103%	119%	113% and 129%	108% and 119%	65.2% and 83%	> 10000 nM	
C=CCn1c(=O)c2cnc(Nc3ccc(N4CCN(C)CC4)cc3)nc2n1-c1cccc(C(C)(C)O)n1	108% and 109%	107% and 101%	96.2% and 81.3%	58% and 55.1%	19.6% and 15.7%	6.89% and 4.96%	1280 nM and 1040 nM	
CC(=O)c1c(C)c2cnc(Nc3ccc(N4CCNCC4)cn3)nc2n(C2CCCC2)c1=O							> 300 nM	viability, T/C (compound 0.000949 µM): 115% and 112%; viability, T/C (compound 0.003 µM): 112% and 98.4%; viability, T/C (compound 0.00949 µM): 103% and 102%; viability, T/C (compound 0.03 µM): 101% and 87.4%; viability, T/C (compound 0.0949 µM): 103% and 73.3%; viability, T/C (compound 0.3 µM): 84% and 77.2%
CC(C)(C)c1cnc(CSc2cnc(NC(=O)C3CCNCC3)s2)o1							108 nM and 76.9 nM	viability, T/C (compound 0.00949 µM): 105% and 90.3%; viability, T/C (compound 0.03 µM): 84% and 77.8%; viability, T/C (compound 0.0949 µM): 58.7% and 44.8%; viability, T/C (compound 0.3 µM): 0.71% and 0.81%; viability, T/C (compound 0.949 µM): 0.43% and 0.49%; viability, T/C (compound 3 µM): 0.25% and 0.28%
CC(C)NCC(C(=O)N1CCN(c2ncnc3c2C(C)CC3O)CC1)c1ccc(Cl)cc1 (centres undefined)		81% [middle of 13 runs]	64.2% [middle of 13 runs]		44.4% [middle of 13 runs]	40.4% [middle of 13 runs]		
CC(C)n1nc(-c2ccc3oc(N)nc3c2)c2c(N)ncnc21	19.4% and 23.2%	19.6% and 22.4%					2.95 nM and 4.75 nM	viability, T/C (compound 0.000316 µM): 87.8% and 89.9%; viability, T/C (compound 0.001 µM): 66.2% and 83.2%; viability, T/C (compound 0.00316 µM): 52% and 57.7%; viability, T/C (compound 0.01 µM): 32.2% and 35.2%
CC1(C)CCC(CN2CCN(c3ccc(C(=O)NS(=O)(=O)c4ccc(NCC5CCOCC5)c([N+](=O)[O-])c4)c(Oc4cnc5[nH]ccc5c4)c3)CC2)=C(c2ccc(Cl)cc2)C1	107% and 100%	106% and 101%	105% and 90.3%	101% and 95.1%	69.9% and 84.5%	14.1% and 13.4%	4740 nM and 5530 nM	
CCCS(=O)(=O)Nc1ccc(F)c(C(=O)c2c[nH]c3ncc(-c4ccc(Cl)cc4)cc23)c1F	98.2% and 112%	99.7% and 110%	91.5% and 92.6%	105% and 111%	98.9% and 101%	76.2% and 71.7%	> 10000 nM	
CCN1CCN(Cc2ccc(Nc3ncc(F)c(-c4cc(F)c5nc(C)n(C(C)C)c5c4)n3)nc2)CC1	97% [middle of 13 runs]	91% [middle of 12 runs]	83.5% [middle of 13 runs]					IC50 (compound alone, run of 06/01/2021): > 1000 nM
COc1c(OCCCN2CCOCC2)ccc2c3n(c(=NC(=O)c4cnc(N)nc4)nc12)CCN3	56.1% and 63.4%	20.8% and 24%	6.09% and 7.35%	3.7% and 4.95%			35.6 nM and 46.5 nM	viability, T/C (compound 0.00316 µM): 96.2% and 95.4%; viability, T/C (compound 0.01 µM): 78.3% and 87.8%
